Target: T1, human PPARδ receptor (Homo sapiens, UniProt Q03181)
T1 construct: expressed in transfected cells
T1 sequence (Q03181 211-439 limits assumed): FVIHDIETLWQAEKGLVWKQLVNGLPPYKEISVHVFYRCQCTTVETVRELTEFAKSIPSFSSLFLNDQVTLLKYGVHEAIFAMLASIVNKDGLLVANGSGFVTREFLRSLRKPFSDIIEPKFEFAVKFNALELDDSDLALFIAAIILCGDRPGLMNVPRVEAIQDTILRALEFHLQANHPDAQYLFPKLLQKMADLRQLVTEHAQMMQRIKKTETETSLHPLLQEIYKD
Experiment: Cellular transactivation assay (GAL4-PPARδ chimera, luciferase reporter)
Type: cell-based
Conditions: GAL4-PPARδ chimera stably expressed in CHO cells, 24 hours stimulation
Description: A cellular assay is used to identify activators of the peroxisome proliferator-activated receptor delta (PPAR-delta).
Since mammalian cells contain different endogenous nuclear receptors which may complicate an unambiguous interpretation of the results, an established chimera system is used in which the ligand binding domain of the human PPARδ receptor is fused to the DNA binding domain of the yeast transcription factor GAL4. The resulting GAL4-PPARδ chimera is co-transfected and stably expressed in CHO cells having a reporter construct.
The GAL4-PPARδ expression construct contains the ligand binding domain of PPARδ (amino acids […]), which is PCR-amplified and cloned into the vector pcDNA3.1. This vector already contains the GAL4 DNA binding domain (amino acids 1-147) of the vector pFC2-dbd (Stratagene). […]
CHO (chinese hamster ovary) cells are sown in CHO-A-SFM medium (GIBCO), supplemented by 2.5% foetal calf serum and 1% penicillin/streptomycin (GIBCO), at a cell density of 2×10^3 cells per well in a 384-well plate (Greiner). […] After a stimulation period of 24 hours, the luciferase activity is measured using a video camera. The relative light units measured give, as a function of the substance concentration, a sigmoidal stimulation curve. The EC50 values are calculated using the computer program GraphPad PRISM (Version 3.02).

EC50: 8.5 nM
SMILES: CN(CC(=O)O)c1ccc(S(=O)(=O)N2CC(C)(C)c3cc(-c4ccc(C(F)(F)F)cc4)ccc32)cc1 [Working Example 1, N-[4-({3,3-Dimethyl-5-[4-(trifluoromethyl)phenyl]-2,3-dihydro-1H-indol-1-yl}sulphonyl)phenyl]-N-methylglycine]

Reference: US20070185183A1, “Indolinesulphanilic acid amides as ppar-delta modulators” (Bayer HealthCare AG, priority 2003, published 2007)
